System: influenza B virus
Set-up: species or system human (patient)
Conditions: human, in vivo, po

Compound: CCOC(=O)C1=C[C@@H](OC(CC)CC)[C@H](NC(C)=O)[C@@H](N)C1 [Oseltamivir, oseltamivir]
- NPAs tested for influenza B virus after oseltamivir treatment: still positive
